Assay results from US20050170041A1, “Chewing gum compositions comprising monatin and methods for making same” (Cargill, Inc., priority 2003, published 2005).

Key:
[1] = Stability of monatin at high temperature (80° C.) and neutral pH, LC-MS; format: physicochemical; conditions: pH 7, 75 ppm, after 7-35 days, synthetic ~96% 2R,4R/2S,4S
Method: A 100 milliliter solution of 75 ppm monatin at pH 7 was used as a stock solution. The synthetic monatin sample contained approximately 96% of the 2R,4R/2S,4S enantiomeric pair and 4% of the 2R,4S/2S,4R enantiomeric pair. Samples were incubated at 80° C. and pH 7 for the duration of the experiment and samples were withdrawn at 0, 1, 2, 3, 4 hours and 1, 2, 4, 7, 14, 21 and 35 days. All experimental conditions were run in duplicate.
A response curve was established for both detected diastereomer peaks of the synthetic monatin. A range of 5-150 ppm was bracketed with the synthetic monatin standard dissolved in DI water. Separation of the two diastereomer peaks was accomplished using a 3.9×150 mm Novapak C18 (Waters Corporation) HPLC column. Ultraviolet-Visible (UV) and Mass Spectrometer (MS) detectors were used in series for detection and quantitation. Monatin and its lactone peak each have a UVmax at 279 nm that aided in precise detection. Quantification was done by acquiring Selected Ion Monitoring (SIM) scan of 293.3 m/z and 275.3 m/z in positive-ion electrospray mode.

[2] = Stability of monatin at pH 3 with increasing temperatures; format: physicochemical; conditions: synthetic monatin
Method: A sample of synthetic monatin was subjected to pH 3 at temperatures of 25° C., 50° C. and 100° C. At room temperature and pH 3, a 14% loss in monatin was observed over a period of 48 hours. This loss was attributed to lactone formation. At 50° C. and pH 3, a 23% loss in monatin was observed over a period of 48 hours. This loss was attributed to lactone formation and the buildup of an unknown compound after about 15.5 minutes. […] The major detectable component was an unknown at 15.5 minutes.

[3] = Quantitative synergy of monatin in blends with other sweeteners; format: in vivo

degree of degradation [1]: insignificant
loss in monatin ([2]; 50° C., pH 3, 48 hours): 23%
loss in monatin ([2]; 100° C., pH 3, after 24 hours): nearly all monatin was lost
loss in monatin ([2]; room temperature (25° C.), pH 3, 48 hours): 14%
Compound: NC(CC(O)(Cc1c[nH]c2ccccc12)C(=O)O)C(=O)O (stereo not drawn) [Monatin, 2-hydroxy-2-(indol-3-ylmethyl)-4-aminoglutaric acid]
quantitative synergy with cyclamates ([3]; blend with cyclamates): quantitatively synergistic
quantitative synergy with other sweeteners ([3]; with aspartame, saccharin, acesulfame-K, sucralose, or carbohydrate sweeteners): no significant quantitative synergy
